The results in this text go back to patent US20240000075A1, “FUNGICIDAL ARYL AMIDINES” (CORTEVA AGRISCIENCE LLC, priority 2020, published 2024).

Like-named read-outs stand apart in the source and are kept apart here. Some results are limits rather than exact numbers.

One series has as its system Phakopsora pachyrhizi. In words: Asian soybean rust, whole-plant fungicidal activity (PHAKPA). The format is in vivo. The following applies: read-out: % Disease Control Rating PHAKPA. The procedure, abridged:
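Ten-day-old 'Williams 82' soybean seedlings sprayed to run-off with compound in acetone/water (1:9, 0.011% Tween-20), air-dried, then inoculated; 24 h dark dew room at 100% RH, then growth room. Disease severity scored 0–100% on sprayed leaves; percent control relative to untreated plants.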

The test system of another series is Puccinia triticina. The series can be described thus: Wheat brown rust, whole-plant fungicidal activity (PUCCRT). It counts as in vivo, Puccinia triticina on wheat plants (variety 'Yuma'). The following applies: 24 h, 1DP (1 day protectant), read-out: % Disease Control Rating PUCCRT. The procedure, abridged: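 Wheat 'Yuma' seedlings at first-leaf stage sprayed to run-off with compound from acetone stock diluted in nine volumes water containing 110 ppm Triton X-100, then inoculated with Puccinia triticina spores. Held overnight in dark dew room at 100% RH, then greenhouse for disease development.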

A further series relates to Rhynchosporium commune. The series can be described thus: Leaf blotch of barley, whole-plant fungicidal activity (RHYNSE). The conditions noted are these: 24 h, 1DP (1 day protectant), read-out: % Disease Control Rating RHYNSE. The format is in vivo. In short, it runs like this:
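Barley cv. 'Harrington' at full first-leaf emergence (7-10 seedlings per pot) was sprayed to run-off with compound in acetone plus nine volumes of water containing 110 ppm Triton X-100, air-dried, then inoculated with spore suspension. Plants spent two days in a dark dew room at 100% RH, then moved to greenhouse for disease development.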

For a further series, the system named is Zymoseptoria tritici. In words: Septoria leaf blotch of wheat, whole-plant fungicidal activity (SEPTTR). The conditions noted are these: read-out: % Disease Control Rating SEPTTR. The format is in vivo, Zymoseptoria tritici on wheat plants (variety 'Yuma'). The procedure, abridged: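 Compounds in acetone, diluted with nine volumes of water containing 110 ppm Triton X-100, were sprayed to run-off on 'Yuma' wheat seedlings at full first-leaf emergence. Spore inoculation was 3 days before (3DC, curative) or 1 day after (1DP, protectant) treatment, then 3 days at 100% RH and greenhouse. First-leaf disease severity (0–100%) was scored relative to untreated plants as percent control.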

The test system of the next series is Cochliobolus sativus. The series can be described thus: Spot blotch of barley, whole-plant fungicidal activity (COCHSA). The format is in vivo. The conditions noted are these: 1DP (1 day protectant), 200 ppm. On the procedure:
Technical grades of materials were dissolved in acetone, which were then mixed with nine volumes of water (H2O) containing 110 ppm Triton X-100. The fungicide solutions were applied onto wheat seedlings using an automated booth sprayer to run-off. All sprayed plants were allowed to air dry prior to further handling. All fungicides were evaluated using the aforementioned method for their activity vs. all target diseases, unless stated otherwise. Example E. Evaluation of Fungicidal Activity: Spot Blotch of Barley (Cochliobolus sativus Bayer Code COCHSA) Barley seedlings (variety ‘Harrington’) were propagated in soil-less potting mix, with each pot having 8 to 12 plants, and used for testing when the first leaf was fully emerged. Test plants were inoculated with a spore suspension of Cochliobolus sativus 24 h after fungicide treatments. After inoculation the plants were kept in […] for two days to permit spores to germinate and infect the leaf. The plants were then transferred to a greenhouse for disease to develop. Fungicide formulation, application and disease assessment followed the procedures as described in Example A.

Regarding `CCN(C)/C=N/c1cc(C)c(C(=O)Cc2ccc(C)cc2)cc1C` [Compound 9], the melting point (usually the temperature of the solid-liquid transition) lay within 90 to 93 °C. In addition, the pest or weed control at 200 ppm in the series on Phakopsora pachyrhizi (24 h, 1DP (1 day protectant)) is above 85%. Also, in the series on Phakopsora pachyrhizi (72 h, 3DC (3 day curative)), the pest or weed control at 200 ppm was above 85%. Moreover, in the series with Puccinia triticina, the pest or weed control at 200 ppm is above 85%. The pest or weed control at 200 ppm with Rhynchosporium commune is above 85%. Moreover, in the series with Zymoseptoria tritici (24 h, 1DP (1 day protectant)), the pest or weed control at 200 ppm is below 20%. Besides, in the series with Zymoseptoria tritici (72 h, 3DC (3 day curative)), the pest or weed control at 200 ppm was below 20%. The “% Disease Control Rating COCHSA” value in the series with Cochliobolus sativus is on record as “A (>85%)”.
For `CCN(C)/C=N/c1cc(C)c(C(=O)CC2CCCC2)cc1C` [Compound 4], the pest or weed control at 200 ppm in the series on Phakopsora pachyrhizi (24 h, 1DP (1 day protectant)) was above 85%; with Phakopsora pachyrhizi (72 h, 3DC (3 day curative)), above 85%; in the series on Puccinia triticina, above 85%; in the series on Rhynchosporium commune it was above 85%; in the series with Zymoseptoria tritici (24 h, 1DP (1 day protectant)), above 85%; with Zymoseptoria tritici (72 h, 3DC (3 day curative)), 50 to 85%. The “% Disease Control Rating COCHSA” value in the series with Cochliobolus sativus is recorded as “A (>85%)”.
In turn, `CCN(C)/C=N/c1cc(C)c(C(=O)CC2CCCCC2)cc1C` [Compound 3] gave a melting point of 69 to 71 °C. In the series with Phakopsora pachyrhizi (24 h, 1DP (1 day protectant)), the pest or weed control at 200 ppm was above 85%. In addition, in the series on Phakopsora pachyrhizi (72 h, 3DC (3 day curative)), the pest or weed control at 200 ppm was above 85%. Also, the pest or weed control at 200 ppm with Puccinia triticina is above 85%. Moreover, in the series on Rhynchosporium commune, the pest or weed control at 200 ppm is above 85%. Besides, the pest or weed control at 200 ppm with Zymoseptoria tritici (24 h, 1DP (1 day protectant)) is above 85%. In the series with Zymoseptoria tritici (72 h, 3DC (3 day curative)), the pest or weed control at 200 ppm fell in the range of 20 to 50%.
For `CCN(C)/C=N/c1cc(C)c(C(=O)Cc2cccc(C(F)(F)F)c2)cc1C` [Compound 5], the melting point was in the range of 73 to 76 °C. Moreover, in the series with Phakopsora pachyrhizi (24 h, 1DP (1 day protectant)), the pest or weed control at 200 ppm was above 85%. In addition, the pest or weed control at 200 ppm in the series with Phakopsora pachyrhizi (72 h, 3DC (3 day curative)) is above 85%. Further, in the series on Puccinia triticina, the pest or weed control at 200 ppm was above 85%. Further, in the series with Rhynchosporium commune, the pest or weed control at 200 ppm was above 85%. Besides, the pest or weed control at 200 ppm with Zymoseptoria tritici (24 h, 1DP (1 day protectant)) lay in the range of 20 to 50%. Moreover, in the series with Zymoseptoria tritici (72 h, 3DC (3 day curative)), the pest or weed control at 200 ppm is below 20%.
